Measurements published in paper PMC4285233 (Molecular Microbiology, 2014).

Key:
[1] = target: T1, Gap1 (general amino acid permease) (Saccharomyces cerevisiae, UniProt P19145); assay: inhibition of L-citrulline uptake in intact yeast; format: cell-based
T1 sequence (P19145 1-602): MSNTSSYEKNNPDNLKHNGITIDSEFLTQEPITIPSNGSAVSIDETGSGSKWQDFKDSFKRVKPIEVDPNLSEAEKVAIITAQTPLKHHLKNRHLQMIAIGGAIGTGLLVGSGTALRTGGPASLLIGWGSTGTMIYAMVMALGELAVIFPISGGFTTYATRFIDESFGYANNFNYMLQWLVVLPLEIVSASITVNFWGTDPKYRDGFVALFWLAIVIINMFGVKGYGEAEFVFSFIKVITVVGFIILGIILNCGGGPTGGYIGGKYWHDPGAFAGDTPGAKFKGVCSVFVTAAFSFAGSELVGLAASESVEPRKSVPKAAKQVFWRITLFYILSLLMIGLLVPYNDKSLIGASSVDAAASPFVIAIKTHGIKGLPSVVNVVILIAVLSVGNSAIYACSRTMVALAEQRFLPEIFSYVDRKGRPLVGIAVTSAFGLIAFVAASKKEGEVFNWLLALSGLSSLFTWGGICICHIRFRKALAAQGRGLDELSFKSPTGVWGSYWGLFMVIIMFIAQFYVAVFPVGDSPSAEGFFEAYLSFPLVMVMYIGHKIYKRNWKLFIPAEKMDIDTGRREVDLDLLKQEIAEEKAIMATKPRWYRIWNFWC

[2] = target: T1, Gap1 (general amino acid permease); assay: inhibition of […]-L-citrulline uptake in intact yeast; format: cell-based

Ki [2] [µM]	SMILES	inhibition of L-citrulline uptake in intact yeast (Fig. S6B, C) [1]
	N[C@H](Cc1c[nH]cn1)C(=O)O [D-histidine]	Moreover they are acting largely as competitive inhibitors of L-citrulline transport (Fig. S6B and C)
2.5	N[C@@H](Cc1c[nH]cn1)C(=O)O [L-histidine]	
3.3	N[C@@H](Cc1c[nH]c2ccccc12)C(=O)O [L-tryptophan]	
	NCCC(=O)O [β-alanine]	Moreover they are acting largely as competitive inhibitors of L-citrulline transport (Fig. S6B and C)

SMILES	Ki [2] [µM]	inhibition of L-citrulline uptake in intact yeast (Fig. S6B, C) [1]
NCCCC[C@H](N)C(=O)O [L-lysine]	9.5	
